# Source: patent US20050244938A1, “Manzamine-producing actinomycetes” (priority 2002, published 2005)
# Where two headings read alike, the source gives them in different places.
# How the values were obtained:
# [1] = tested on: Mycobacterium tuberculosis (H37Rv); assay: microplate Alamar Blue assay, in vitro activity against Mycobacterium tuberculosis; format: cell-based
# [2] = tested on: Plasmodium falciparum (D6 clone); assay: in vitro antimalarial activity, D6 clone; format: cell-based; details: for IC50: Plasmodium falciparum
# [3] = tested on: P. falciparum (chlorine-resistant W2 clone); assay: in vitro antimalarial activity, resistant W2 clone; format: cell-based, Plasmodium falciparum; details: NA = not active; for IC50: Plasmodium falciparum, read-out: P. falciparum (chlorine-resistant W2 clone) in vitro IC 50
# Nocardia sp. ATCC 21145 = assay: microbial transformation study to model human metabolism; details: monitored by TLC, metabolite identical to ent-12,34-oxamanzamine F (2)
# Method: (§1) In order to model the human metabolism of the manzamines and to generate additional analogs for biological evaluation, microbial transformation studies were performed for ent-8-hydroxymanzamine A (El Sayed, et al., 2001) (3). Thirty-three growing microbial cultures were screened for their potential to bioconvert 3 to new metabolites.
# [4] = tested on: Fusarium oxysporium ATCC 7601; assay: as above; details: monitored by TLC, metabolite identical to ent-12,34-oxamanzamine F (2)
# Method: as §1
# toxicity (no method) = details: qualitative statement
# [5] = D6 clone, in vitro, NA = not active
molecule,measurement,setting,value
"O=C1CCCN2[C@H]3[C@]45CN6CCCC/C=C\CC[C@]3(C=C(c3nccc7c3[nH]c3c(O)cccc37)[C@H]4CC6)O[C@]2(CC1)C5 (single isomer, unassigned; ent-12) [ent-12,34-Oxamanzamine F (2), ent-12,34-oxamanzamine F]",Mycobacterium tuberculosis (H37Rv) MIC,[1],12.5 µg/mL
same,Plasmodium falciparum (D6 clone) in vitro IC 50,[2]; [5],0.84 µg/mL
same,P. falciparum (chlorine-resistant W2 clone) in vitro IC 50,[3],1.1 µg/mL
"O[C@]12C=C(c3nccc4c3[nH]c3ccccc34)C3CCN(CCCC/C=C\CC1)C[C@@]31C[C@]34CC[C@H](CCCN3[C@H]12)O4 (some centres unmarked) [6-Deoxymanzamine X, 6-deoxymanzamine X]",Mycobacterium tuberculosis (H37Rv) MIC,[1],1.77 µg/mL
same,Plasmodium falciparum (D6 clone) in vitro IC 50,[2]; [5],1.3 µg/mL
same,P. falciparum (chlorine-resistant W2 clone) in vitro IC 50,[3],1.4 µg/mL
"C1=C(c2nccc3c2[nH]c2ccccc23)[C@@H]2CCN3CCCC/C=C\CC[C@]14O[C@@]15/C=C\CCCCN1[C@@H]4[C@]2(C3)C5 [12,34-oxamanzamine A (4), 12,34-oxamanzamine A]",Plasmodium falciparum (D6 clone) in vitro IC 50,[2]; [5],4.76 µg/mL
C[C@@H]1CC[C@H]2[C@@H](C)C(=O)O[C@@H]3O[C@@]4(C)CC[C@@H]1[C@]32OO4 [Artemisinin],IC50,"[2]; D6 clone, in vitro, NA = not active, read-out: Plasmodium falciparum (D6 clone) in vitro IC 50",0.01 µg/mL
same,IC50,[3],0.0063 µg/mL
CCN(CC)CCCC(C)Nc1ccnc2cc(Cl)ccc12 (centres unmarked) [Chloroquine],IC50,"[2]; D6, read-out: Plasmodium falciparum (D6 clone) in vitro IC 50",0.0155 µg/mL
same,IC50,[3],0.17 µg/mL
"O=CC1=C[C@@]2(O)CC/C=C\CCCCN3CC[C@@H]1[C@]1(CC4/C=C\CCCCN4[C@H]12)C3 (some centres unmarked) [Ircinal A, ircinal A]",Mycobacterium tuberculosis (H37Rv) MIC,[1],30.2 µg/mL
"O[C@]12C=C(c3nccc4c3[nH]c3ccccc34)[C@@H]3CCN(CCCC/C=C\CC1)C[C@@]31C[C@@H]3/C=C\CCCCN3[C@H]12 [Manzamine A, manzamine A]",Mycobacterium tuberculosis (H37Rv) MIC,[1],1.53 µg/mL
same,Plasmodium falciparum (D6 clone) in vitro IC 50,[2]; [5],0.0045 µg/mL
same,P. falciparum (chlorine-resistant W2 clone) in vitro IC 50,[3],0.008 µg/mL
"O=C1CCCN2[C@@H](CC1)C[C@]13CN4CCCC/C=C\CC[C@](O)(C=C(c5nccc6c5[nH]c5ccccc56)[C@@H]1CC4)[C@H]23 [Manzamine E, manzamine E]",Mycobacterium tuberculosis (H37Rv) MIC,[1],3.76 µg/mL
same,Plasmodium falciparum (D6 clone) in vitro IC 50,[2]; [5],3.4 µg/mL
same,P. falciparum (chlorine-resistant W2 clone) in vitro IC 50,[3],4.76 µg/mL
"O=C1CCCN2[C@@H](CC1)C[C@]13CN4CCCC/C=C\CC[C@](O)(C=C(c5nccc6c5[nH]c5c(O)cccc56)C1CC4)[C@H]23 (some centres unmarked) [Manzamine F, manzamine F]",Mycobacterium tuberculosis (H37Rv) MIC,[1],2.56 µg/mL
same,Plasmodium falciparum (D6 clone) in vitro IC 50,[2]; [5],0.78 µg/mL
same,P. falciparum (chlorine-resistant W2 clone) in vitro IC 50,[3],1.7 µg/mL
(+)-8-hydroxymanzamine A,Mycobacterium tuberculosis (H37Rv) MIC,[1],0.91 µg/mL
same,Plasmodium falciparum (D6 clone) in vitro IC 50,[2]; [5],0.006 µg/mL
same,P. falciparum (chlorine-resistant W2 clone) in vitro IC 50,[3],0.008 µg/mL
ent-8-hydroxymanzamine A [ent-8-hydroxymanzamine A (3)],Mycobacterium tuberculosis (H37Rv) MIC,[1],3.13 µg/mL
same,bioconversion by growing microbial culture,Nocardia sp. ATCC 21145,exhaustively metabolize
same,bioconversion by growing microbial culture,[4],exhaustively metabolize
"ent-12,34-oxamanzamine E [ent-12,34-Oxamanamine E (1)]",Mycobacterium tuberculosis (H37Rv) MIC,[1],128 µg/mL
ircinol A,Mycobacterium tuberculosis (H37Rv) MIC,[1],1.93 µg/mL
same,Plasmodium falciparum (D6 clone) in vitro IC 50,[2]; [5],2.4 µg/mL
same,P. falciparum (chlorine-resistant W2 clone) in vitro IC 50,[3],3.1 µg/mL
same,toxicity,toxicity (no method),minimal toxicity
